A short description of the data set: in-vitro nail permeation assay in Franz-type diffusion cells. The format is in vitro ADME, human. Conditions: formulations with 5% and 10% (w/w) terbinafine in the vehicle of Table 3; nails with 400 orifices/cm^2, depth 0.5 mm (50% to 70% of nail plate thickness); single dose of 100 μL; 30° C.; up to 72 hours. The method, then:
Franz-cells comprise two chambers separated by the nail plate. The radiolabelled [^14C]-terbinafine containing transungual formulations were applied in the donor upper chamber and the receptor chamber is filled with a buffer to simulate the human physiological conditions. To account for the fact the nails are hard and curved, wetted nails are clamped between two flexible flat silicone polymer disks. The temperature of the cells was kept a 30° C. using a circulating water bath. Magnetic stirrer bars were used to ensure receptor uniformity throughout an experiment.
The nail permeation assays consisted of exposing the dorsal side of the nail plates to the investigated formulations while monitoring the appearance the amount of radiolabelled [^14C]-terbinafine on the ventral side by […] in the receptor fluid chamber of the Franz cells. In all cases a single dose of 100 μL was applied in the nail dorsal side. 100 μL of buffer were taken for each time point for LSC measurement which was replaced by buffer in order to keep the total buffer volume constant. The sampling time points were 0, 1, 3, 5, 7, 24, 32, 48, 52, 55 and 72 hours.
Human cadaveric thumb toenails used in the permeation assays were harvested from diseased adults (age >50 years old) in order to match thickness and consistence of the nails of the patient age group having a higher incidence to onychomycosis. […]

Structures are written as SMILES.

As to `CN(C/C=C/C#CC(C)(C)C)Cc1cccc2ccccc12` [terbinafine], the “terbinafine permeation fluxes in laser pre-treated nails versus untreated nails” value was “three to four times higher”.
